Assay results taken from patent US8133709B2, “Target sequences for synthetic molecules” (Life Technologies Corporation, priority 2003, dated 2012).

What was measured:
ACP = molecular target: T1, ACP (Escherichia coli, UniProt P0A6A8); experiment: Specificity: labeling of a mixture of purified proteins, SDS-PAGE, laser gel scanner; format: binding; settings: 10 μM in SDS-PAGE sample buffer; ACP:SlyD approximately 2:1; FIG. 17
T1 construct: inferred for this product (C); purchased Invitrogen, Madison, Wis; P3080
T1 sequence (P0A6A8 with tags, fused parts or gaps): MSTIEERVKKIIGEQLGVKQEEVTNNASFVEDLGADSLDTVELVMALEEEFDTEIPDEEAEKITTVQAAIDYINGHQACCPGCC
Description: ACP (Invitrogen, Madison, Wis., Catalog #P3080) was mixed at approximately 2:1 molar ratio with SlyD-His tag. The proteins were put in SDS-PAGE sample buffer supplemented with 10 μM FlAsH-EDT2, Cy3-EDT2, or Cy5-EDT2 and electrophoresed at 150 volts on a 4-20% Tris-glycine pre-cast Novex gel (Invitrogen, Carlsbad, Calif.). Immediately following electrophoresis the gel was imaged on a Fuji Film FLA 5000 laser gel scanner. […] Therefore, the SlyD tetracysteine sequence (SEQ. ID NO: 5) uniquely binds to biarsenical molecules and not to […].

[1] = molecular target: T2, ACP-CCPGCC (tetracysteine version of Acyl Carrier protein) (Escherichia coli, UniProt P0A6A8); experiment: FlAsH-EDT2 labeling of in vitro synthesised protein, SDS-PAGE, UV light box; format: binding; settings: 10 μM in LDS sample buffer, 70° C. 10 minutes; control; FIG. 14
T2 construct: made in house; host or cells: Cell-free: Expressway in vitro protein synthesis kit (S30 E. coli extract)
T2 sequence (P0A6A8 with tags, fused parts or gaps): as above
Description: In vitro protein synthesis was carried out using the Expressway™ in vitro protein synthesis kit (Invitrogen, Carlsbad, Calif., Catalog #K9600-02). Following the manufacture's protocol 1 μg of AcpS vector DNA was added to a total volume of 50 μL of S30 E. coli extract and reaction buffer. As a control, a tetracysteine (CCPGCC) (SEQ. ID NO: 53) version of Acyl Carrier protein (ACP) (SEQ. ID NO: 7) was also expressed via the Expressway™ kit. The reaction was placed at 37° C. with 225 rpm shaking for two hours. After incubation 5 μL of RNase A was added to the reaction, after which an additional 15 minute incubation at 37° C. was performed. Protein from the in vitro protein synthesis reaction was prepared for SDS-PAGE analysis through an acetone precipitation procedure. 5 μl of reaction was added to 20 μL of 100% acetone. After mixing well the acetone solution was centrifuged for 5 minutes at room temperature in a microcentrifuge at 12,000 rpm. The supernatant was removed and the pellet was allowed to dry for 5 minutes. The pellet was resuspended in a 50 μL volume of LDS sample buffer (Invitrogen, Carlsbad, Calif., Catalog #NP0007) containing 10 μM FlAsH-EDT2. The samples were heated to 70° C. for 10 minutes and 10 μL of the samples were then loaded onto a 4-12% NUPAGE® pre-cast gel (Invitrogen, Carlsbad, Calif.) using MES running buffer. […]

[2] = molecular target: T3, SlyD+His tag (SlyD tetracysteine sequence) (Escherichia coli, UniProt P0A9K9); experiment: Specificity: labeling of a mixture of purified proteins, SDS-PAGE, laser gel scanner; format: binding; settings: 10 μM in SDS-PAGE sample buffer; ACP:SlyD approximately 2:1; FIG. 17
T3 construct: made in house; host or cells: E. coli BL21 (DE3), pRSET vector, Ni-NTA purified
T3 sequence (P0A9K9 with tags, fused parts or gaps): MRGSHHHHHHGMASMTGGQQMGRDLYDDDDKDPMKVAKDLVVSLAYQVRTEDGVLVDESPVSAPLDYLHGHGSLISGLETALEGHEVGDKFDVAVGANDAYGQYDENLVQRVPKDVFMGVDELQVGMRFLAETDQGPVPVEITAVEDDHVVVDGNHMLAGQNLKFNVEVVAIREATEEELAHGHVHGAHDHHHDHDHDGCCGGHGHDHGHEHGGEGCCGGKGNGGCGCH
Description: The native SlyD sequence (SEQ. ID NO: 4) was cloned into the pRSET vector (Invitrogen, Carlsbad, Calif.) using standard molecular biology techniques. Purified protein was produced from this vector by first transforming BL21 (DE3) cells (Invitrogen, Carlsbad, Calif., Catalog #C6010-03) and plated on LB-ampicillin plates. A single colony was selected and grown in one liter of liquid LB broth to a density of 1 O.D. and 1 mM IPTG was added to induce protein expression. After three hours of protein induction the culture was harvested by centrifugation at 10,000×g for 5 minutes at 4° C. The cell pellet was resuspended in 50 mM HEPES (pH 7.5), 140 mM NaCl and sonicated on ice for a total of two minutes. The E. coli lysate was separated by centrifugation at 25,000×g for 20 minutes at 4° C. The supernatant contained the soluble protein and consequently it was loaded onto a Ni^2+-NTA column equilibrated in 50 mM HEPES (pH 7.5), 140 mM NaCl buffer. The column was washed with three column volumes of 50 mM HEPES (pH 7.5), 140 mM NaCl and non-specific binding proteins were removed by washing with 50 mM HEPES (pH 7.5), 140 mM NaCl, and 20 mM Imidazole. To elute the desired hexahistidine tagged SlyD, a solution of 50 mM HEPES (pH 7.5), 140 mM NaCl, and 250 mM Imidazole was added to the column. The protein eluted at greater than 90% purity. […]

[3] = molecular target: T4, AcpS+4Cys (SlyD tetracysteine sequence […] on AcpS) (Escherichia coli, UniProt P24224); experiment: FlAsH-EDT2 labeling of in vitro synthesised protein, SDS-PAGE, UV light box; format: binding; settings: 10 μM in LDS sample buffer, 70° C. 10 minutes; compared with CCPGCC; FIG. 14
T4 construct: made in house; host or cells: Cell-free: Expressway in vitro protein synthesis kit, S30 E. coli extract, from a pRSET vector
T4 sequence (P24224 with tags, fused parts or gaps): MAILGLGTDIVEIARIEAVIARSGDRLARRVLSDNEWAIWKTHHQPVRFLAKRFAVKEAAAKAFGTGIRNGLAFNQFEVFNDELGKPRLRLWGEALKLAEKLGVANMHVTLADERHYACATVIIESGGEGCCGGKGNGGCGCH
Excerpt: A target sequence that includes the SlyD (SEQ. ID NO: 4) tetracysteine sequence, CCGGKGNGGCGC (SEQ. ID NO: 5) was introduced onto the Carboxy-terminus of Acyl Carrier Protein S (AcpS). Since AcpS has only one endogenous cysteine amino acid and since AcpS is a robust stable protein, a substitution at the Carboxy-terminus could be made without altering the solubility of the properly folded protein. […] ID NO: 6. The mutated AcpS is referred to as AcpS+4Cys. The substitutions were generated using polymerase chain reaction with primers specific for the encoding the expression of the desired tetracysteine sequence. The nucleic acid sequence encoding the cysteine substituted AcpS was inserted into the pRSET vector (Invitrogen, Carlsbad, Calif., Catalog #V351-20) using restriction sites inherent to the vector's multiple cloning site. After amplification in DH5 bacteria, the vector was expressed using in vitro transcription and translation. See also, U.S. Provisional Patent Application No. 60/614,590, filed Oct. 1, 2004 and U.S. patent application Ser. No. 10/954,951, filed Oct. 1, 2004, incorporated by reference herein in their entireties, disclosing additional compositions and methods for in vitro transcription and translation.
In vitro protein synthesis was carried out using the Expressway™ in vitro protein synthesis kit (Invitrogen, Carlsbad, Calif., Catalog #K9600-02). […]

SlyD-C167A/C168A = molecular target: T5, SlyD-C167A/C168A (Escherichia coli, UniProt P0A9K9, C167A/C168A); experiment: Binding mode: FlAsH-EDT2 labeling of in vitro synthesised SlyD versions, SDS-PAGE; settings: 10 μM in LDS sample buffer; FIG. 15
T5 construct: Lane 2 is full length, hexahistidine tagged SlyD with two point mutations; made in house; host or cells: Cell-free: Expressway in vitro protein synthesis kit (S30 E. coli extract)
T5 sequence (P0A9K9 with tags, fused parts or gaps C167A/C168A): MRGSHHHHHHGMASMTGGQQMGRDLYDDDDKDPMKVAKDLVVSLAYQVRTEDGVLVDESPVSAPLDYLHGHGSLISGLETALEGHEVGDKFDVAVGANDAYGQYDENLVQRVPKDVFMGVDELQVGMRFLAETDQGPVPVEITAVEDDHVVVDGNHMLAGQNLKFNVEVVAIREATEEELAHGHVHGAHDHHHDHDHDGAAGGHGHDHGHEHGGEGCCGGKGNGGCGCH
Description: (§1) The mode of binding of a biarsenical to a target sequence was examined using the Expressway™ in vitro protein synthesis kit (Invitrogen, Carlsbad, Calif.) and SDS-PAGE. Following the manufacture's protocol 1 μg of SlyD+His tag (SEQ. ID NO: 8), SlyD-C167A/C168A (SEQ. ID NO: 9), and SlyD-trunc171 (SEQ. ID NO: 10) vector DNAs were added to a total volume of 50 μL of S30 E. coli extract and reaction buffer. The reaction was placed at 37° C. with 225 rpm shaking for two hours. After incubation 5 μL of RNase A was added to the reaction, after which an additional 15 minute incubation at 37° C. was performed. Protein from the in vitro protein synthesis reaction was prepared for SDS-PAGE analysis through an acetone precipitation procedure. 5 μl of reaction was added to 20 μL of 100% acetone. After mixing well the acetone solution was centrifuged for 5 minutes at room temperature in a microcentrifuge at 12,000 rpm. The supernatant was removed and the pellet was allowed to dry for 5 minutes. The pellet was resuspended in a 50 μL volume of LDS sample buffer (Invitrogen, Carlsbad, Calif.) containing 10 μM FlAsH-EDT2. The samples were heated to 70° C. for 10 minutes and 10 μL of the samples were then loaded onto a 4-12% NuPAGE® pre-cast gel (Invitrogen, Carlsbad, Calif., Catalog #NP0239 Box) using MES running buffer. The gel was electrophoresed at 200 volts for about 30 minutes. Immediately following electrophoresis the gel was removed from the cassette and visualized on a UV light box.

SlyD-trunc171 = molecular target: T6, SlyD-trunc171 (Escherichia coli, UniProt P0A9K9); experiment: as above; settings: 10 μM in LDS sample buffer; FIG. 15
T6 construct: a hexahistidine tagged version of SlyD truncated after position 171 (SlyD-trunc171); made in house; host or cells: Cell-free: Expressway in vitro protein synthesis kit (S30 E. coli extract)
T6 sequence (P0A9K9 with tags, fused parts or gaps): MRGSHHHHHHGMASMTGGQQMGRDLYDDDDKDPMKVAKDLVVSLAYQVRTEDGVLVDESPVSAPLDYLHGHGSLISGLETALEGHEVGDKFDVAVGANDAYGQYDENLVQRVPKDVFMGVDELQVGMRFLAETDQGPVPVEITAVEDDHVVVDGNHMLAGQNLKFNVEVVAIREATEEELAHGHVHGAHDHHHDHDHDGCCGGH
Description: as §1

SlyD+His tag = molecular target: T7, SlyD+His tag (Escherichia coli, UniProt P0A9K9); experiment: as above; settings: 10 μM in LDS sample buffer; FIG. 15
T7 construct: Lane 1 is full length, hexahistidine tagged SlyD (SlyD+His tag); made in house; host or cells: Cell-free: Expressway in vitro protein synthesis kit (S30 E. coli extract)
T7 sequence (P0A9K9 with tags, fused parts or gaps): as the sequence (P0A9K9 with tags, fused parts or gaps C167A/C168A) above, with A200C, A201C counted along it
Description: as §1

## O=C(O)c1ccccc1-c1c2ccc(=O)c([As]3SCCS3)c-2oc2c([As]3SCCS3)c(O)ccc12 [FlAsH-EDT2]
ACP
  binding/labeling of ACP: binds to both SlyD+His tag and ACP
[1]
  labeling of the CCPGCC sequence (ACP): equivalent labeling
[2]
  binding/labeling of SlyD+His tag: binds to both SlyD+His tag and ACP
[3]
  labeling of the CCGGKGNGGCGC sequence (AcpS+4Cys): equivalent labeling
SlyD-C167A/C168A
  labeling of SlyD-C167A/C168A: identical labeling
SlyD-trunc171
  labeling of SlyD-trunc171 (only a vicinal pair of cysteines): only two cysteines are required for biarsenical labeling
SlyD+His tag
  labeling of SlyD+His tag: identical labeling
